Assay results published in publication PMC7679302 (Environmental Science and Pollution Research International, 2020).
Marks after values point to notes of the source that are not given here.

Key:
amphipod Hyalella azteca = experiment: Chronic 42-day sediment test with amphipods (survival, growth, reproduction, sex ratio)
Description: Dechlorinated municipal tap water was used for cultures and toxicity tests. Both cultures and toxicity tests were held at 25 °C with a photoperiod of 16 h light:8 h dark, and amphipods were fed finely ground Tetra-Min fish food flakes (Tetra GMBH, Melle, Germany). Juvenile amphipods were removed weekly from breeding containers and used in toxicity tests.
Two tests were conducted for each compound. Amphipods were fed ground Tetra-Min twice per week during weeks 1 and 2, three times during week 3, and 5 mg three times per week during weeks 4 to 6. Surviving adults were counted, weighed as a group, and examined under a dissecting microscope to identify males (enlarged second gnathopods) and females, and the number of juveniles was recorded.

mayfly Hexagenia spp. [1] = settings: Hexagenia spp. (mixture of H. rigida and H. limbata), in vivo, 42 days, pH 8.3
Description: (§3) Nominal concentrations were 10, 30, 100, 300, and 1000 mg/kg for juvenile freshwater mussels and 3, 10, 30, 100, and 300 mg/kg for amphipods and mayflies, and were based on the results of range-finding tests (detailed in Supplementary Materials). […] For each PPCP, the concentration of solvent used was consistent across treatments.
(§4) The sediments were mixed for 24 h, left open in a fume hood for 3–5 days for the acetone to evaporate, and then stored at 4 °C until use. […] All beakers were aerated for 1 week under testing conditions prior to the addition of organisms, and throughout the tests. Duration of toxicity tests varied depending on the species and endpoint of interest (see below). Water quality parameters were collected for each test (Table S1).
(§5) Briefly, eggs of Hexagenia spp. […] Prior to testing, eggs were hatched and nymphs were grown in aerated 20-L aquaria containing culture sediment (depth: 2.5 cm) and culture water (depth: 10 cm) for 6 to 7 weeks.
(§6) Ten mayflies (5–8 mg wet weight) were added to each beaker (three replicates for each control and PPCP concentration). Two tests were conducted for each compound. […] At the end of the test, mayflies were removed and surviving animals from each of the three replicates were counted and weighed.

mayfly Hexagenia spp. [2] = experiment: Chronic 42-day sediment test with mayflies (survival, growth); settings: measured, n = 6
Description: as §3, §4, §5, §6

mayflies Hexagenia spp. = experiment: 21 d range-finding sediment test, mayflies; format: in vivo; settings: n = 3
Description: (§1) Range-finding tests of 21 d were completed with juvenile mussels, amphipods and mayflies to assist with the selection of the concentrations to be used in final testing. Nominal concentrations in range-finding tests were 0.1, 1, 10, 100, and 1000 mg/kg, based on dry weight of sediment. Range-finding test conditions were identical to those described in the manuscript for chronic sediment tests with the exception of test duration.
At the end of the test, survival and wet weight of mayflies in each replicate were recorded.

[3] = system: juvenile mussels L. siliquoidea; experiment: 21 d range-finding sediment test, juvenile mussels; format: in vivo
Description: as §1
After 21 d, mussels were recovered and transferred to Petri dishes filled with clean sand and housed in large trays of aerated culture water to assess burial ability.

amphipods H. azteca = experiment: 21 d range-finding sediment test, amphipods; format: in vivo, Hyalella azteca; settings: n = 3
Description: as §1
Amphipods were fed 2.5 mg Tetra-min twice per week during weeks one and two, and three times during week three. At the end of the test, amphipods were removed and the survivors were counted and weighed.

[4] = system: African clawed frog (Xenopus laevis) larvae; design: method as in Finch et al. [2013]; settings: chronic exposure to 100 ng/L MGA; ref Finch et al. [2013]; cited from earlier work
[5] = natural and simulated sunlight; ref Qu et al. [2012]; cited from earlier work
[6] = Acute 48 h aqueous toxicity test with glochidia (viability); format: in vivo, Lampsilis siliquoidea; settings: Lampsilis siliquoidea, in vivo, other: aqueous (water-only) exposure, 48-h aqueous exposure, n = 4, read-out: Viability (mean, % (standard deviation))
Excerpt: (§2) Aqueous acute toxicity tests were based on the American Society for Testing and Materials (ASTM [2013]) protocols for conducting toxicity tests with early life stages of freshwater mussels. Gravid female L. siliquoidea were collected from an established reference site in the Maitland River (ON) and kept in ECCC’s Aquatic Life Research Facility (Canada Centre for Inland Waters, Burlington, ON). Glochidia were removed from gravid females and their viability (i.e., ability to close their valves) was assessed. Glochidia from a minimum of three gravid mussels whose glochidia exceeded 90% viability were pooled and exposed to a geometric series of nominal concentrations (0, 0.0025, 0.025, 0.25, 2.5, 25 mg/L) of either FIN or MGA plus a solvent control. Tests were conducted in 250-mL glass beakers (unaerated and unfed) with culture water. After 24 and 48 h of exposure, glochidia viability was assessed in a minimum of 100 glochidia per replicate (four replicates). Water samples were collected at the beginning and end of the tests, and frozen pending chemical analysis.

[7] = system: Lampsilis siliquoidea glochidia; experiment: as above; format: in vivo; settings: for Viability (mean, % (standard deviation)): 48-h aqueous exposure, n = 4
Excerpt: as §2

[8] = system: goldfish (Carassius auratus); design: method as in Upjohn Company [1996]; settings: 1 mg/L MGA for 21 days; ref Upjohn Company [1996]; cited from earlier work
D. magna [9] = system: D. magna; design: method as in Haeba et al. [2008]; settings: ref Haeba et al. [2008], cited from earlier work
[10] = system: glochidia of L. siliquoidea; design: method as in Gilroy et al. ([2017]); settings: ref Gilroy et al. ([2017]); cited from earlier work
juvenile L. siliquoidea = system: juvenile L. siliquoidea; design: method as in Gilroy et al. ([2017]); settings: ref Gilroy et al. ([2017]); cited from earlier work
D. magna [11] = settings: ref Minguez et al. ([2014]); cited from earlier work
[12] = Hyalella azteca, in vivo, 42 days, pH 8.3
[13] = 0.1 mg/kg dry weight nominal, n = 3
[14] = 1 mg/kg dry weight nominal, n = 3
[15] = 10 mg/kg dry weight nominal, n = 3
[16] = 100 mg/kg dry weight nominal, n = 3

C=C1C[C@H]2[C@@H]3C=C(C)C4=CC(=O)CC[C@]4(C)[C@H]3CC[C@]2(C)[C@@]1(OC(C)=O)C(C)=O [Melengestrol acetate]
ChV, sediment (amphipod Hyalella azteca; [12]): 53 mg/kg | LOEC, overlying water (amphipod Hyalella azteca; [12]): 0.5 mg/L | LOEC, sediment (amphipod Hyalella azteca; [12]): 76 mg/kg | NOEC, overlying water (amphipod Hyalella azteca; [12]): 0.25 mg/L | Females (percent of surviving amphipods), mean (SEM) (amphipod Hyalella azteca; melengestrol acetate 76 mg/kg dw sediment (0.5 mg/L water), measured, 42-day, n = 10): 60 (4.5) % | NOEC, sediment (amphipod Hyalella azteca; survival, growth, 42-day, dry weight sediment, measured): 37 mg/kg | ChV, overlying water (mayfly Hexagenia spp. [1]): 0.1 mg/L | ChV, sediment (mayfly Hexagenia spp. [1]): 21 mg/kg | LOEC, overlying water (mayfly Hexagenia spp. [1]): 0.25 mg/L | LOEC, sediment (mayfly Hexagenia spp. [1]): 37 mg/kg | NOEC, overlying water (mayfly Hexagenia spp. [1]): 0.04 mg/L | NOEC, sediment (mayfly Hexagenia spp. [1]): 12 mg/kg | Survival (percent of initial animals added), mean (SEM) (mayfly Hexagenia spp. [2]; melengestrol acetate 1 mg/kg dw sediment (0.002 mg/L water)): 95 (2.2) % | Survival (percent of initial animals added), mean (SEM) (mayfly Hexagenia spp. [2]; melengestrol acetate 12 mg/kg dw sediment (0.04 mg/L water)): 90 (2.6) % | Survival (percent of initial animals added), mean (SEM) (mayfly Hexagenia spp. [2]; melengestrol acetate 37 mg/kg dw sediment (0.25 mg/L water)): 93 (2.1) % | Survival (percent of initial animals added), mean (SEM) (mayfly Hexagenia spp. [2]; melengestrol acetate 76 mg/kg dw sediment (0.5 mg/L water)): 92 (4.0) % | Growth, mean (SEM) (mayflies Hexagenia spp.; 0.1 mg/kg dry weight nominal): 33 (0.2) mg wet weight | Survival (%), mean (SEM) (mayflies Hexagenia spp.; 0.1 mg/kg dry weight nominal): 100 (0.0) % | Growth, mean (SEM) (mayflies Hexagenia spp.; 1 mg/kg dry weight nominal): 30 (0.9) mg wet weight | Survival (%), mean (SEM) (mayflies Hexagenia spp.; 1 mg/kg dry weight nominal): 97 (3.3) % | Growth, mean (SEM) (mayflies Hexagenia spp.; 10 mg/kg dry weight nominal): 31 (1.2) mg wet weight | Survival (%), mean (SEM) (mayflies Hexagenia spp.; 10 mg/kg dry weight nominal): 100 (0.0) % | Growth, mean (SEM) (mayflies Hexagenia spp.; 100 mg/kg dry weight nominal): 20^a (0.7) mg wet weight | Survival (%), mean (SEM) (mayflies Hexagenia spp.; 100 mg/kg dry weight nominal): 100 (0.0) % | Growth, mean (SEM) (mayflies Hexagenia spp.; 1000 mg/kg dry weight nominal): 7.4^a (0.24) mg wet weight | Survival (%), mean (SEM) (mayflies Hexagenia spp.; 1000 mg/kg dry weight nominal): 37^a (8.8) % | Burial (%), mean (SEM) [3, 13]: 85 (4.8) % | Survival (%), mean (SEM) [3, 13]: 93 (3.3) % | Burial (%), mean (SEM) [3, 14]: 97 (7.0) % | Survival (%), mean (SEM) [3, 14]: 97 (3.3) % | Burial (%), mean (SEM) [3, 15]: 90(5.8) % | Survival (%), mean (SEM) [3, 15]: 97 (3.3) % | Burial (%), mean (SEM) [3, 16]: 90 (0.0) % | Survival (%), mean (SEM) [3, 16]: 100 (0.0) % | Burial (%), mean (SEM) ([3]; 1000 mg/kg dry weight nominal, n = 3): 68 (5.8) % | Survival (%), mean (SEM) ([3]; 1000 mg/kg dry weight nominal, n = 3, 1000 mg/kg): 77 (8.8) % | Growth, mean (SEM) (amphipods H. azteca; 0.1 mg/kg dry weight nominal): 1.0 (0.09) mg wet weight | Survival (%), mean (SEM) (amphipods H. azteca; 0.1 mg/kg dry weight nominal): 100 (3.8) % | Growth, mean (SEM) (amphipods H. azteca; 1 mg/kg dry weight nominal): 1.0 (0.07) mg wet weight | Survival (%), mean (SEM) (amphipods H. azteca; 1 mg/kg dry weight nominal): 100 (0.0) % | Growth, mean (SEM) (amphipods H. azteca; 10 mg/kg dry weight nominal): 1.1 (0.10) mg wet weight | Survival (%), mean (SEM) (amphipods H. azteca; 10 mg/kg dry weight nominal): 95 (2.2) % | Growth, mean (SEM) (amphipods H. azteca; 100 mg/kg dry weight nominal): 0.7 (0.15) mg wet weight | Survival (%), mean (SEM) (amphipods H. azteca; 100 mg/kg dry weight nominal): 95 (2.2) % | Survival (%), mean (SEM) (amphipods H. azteca; 1000 mg/kg dry weight nominal): 0^a (0.0) % | Larval size (length and weight) vs controls [4]: significantly smaller | Mortality or developmental effects [4]: no mortality or developmental effects were observed | Direct photolysis half-life [5]: approximately 45 min | viability at 48 h, 0.005 mg/L ([6]; 0.005 mg/L mean measured): 86% | viability at 48 h, 0.05 mg/L ([6]; 0.05 mg/L mean measured): 82% | viability at 48 h, 0.3 mg/L ([6]; 0.3 mg/L mean measured): 85% | viability at 48 h, 1.9 mg/L ([6]; 1.9 mg/L mean measured): 82% | viability at 48 h, 4 mg/L ([6]; 4 mg/L mean measured): 70% | Decrease in viability ([7]; 4 mg/L MGA, water-only): 20% | Viability (mean, % (standard deviation)) ([7]; 0.05 mg/L mean measured): 82 (2.1)^b % | Viability (mean, % (standard deviation)) ([7]; 1.9 mg/L mean measured): 82 (3.3)^b % | NOEC ([7]; Lampsilis siliquoidea, in vivo, 48 h): 1.9 mg/L^b | ChV (geometric mean of NOEC and LOEC) ([7]; viability, acute 48 h): 2.8 mg/L | Toxicity [8]: No toxicity was observed

CC(C)C(=O)Nc1ccc([N+](=O)[O-])c(C(F)(F)F)c1 [flutamide]
Effect on maturation and embryonic development (D. magna [9]; concentrations up to 1 mg/L): delayed the maturation of female D. magna and inhibited the embryonic development of neonates | 48-h EC50 for immobilization (D. magna [9]): 2.7 µg/mL

CN[C@H]1CC[C@@H](c2ccc(Cl)c(Cl)c2)c2ccccc21 [sertraline]
24-h LC50 [10]: 0.06 µg/mL | 28-day LC50 (juvenile L. siliquoidea): 0.04 µg/mL

CN(C)CCC=C1c2ccccc2CCc2ccccc21 [amitriptyline]
24-h LC50 [10]: 0.3 µg/mL | 14-day LC50 (juvenile L. siliquoidea): 0.4 µg/mL | 48-h EC50 (D. magna [11]): 4.8 µg/mL
